The supplement of paper PMC13380429

Legend:
[1] = test system: A549-ACE2 infected with SARS-CoV-2; assay: cell count relative to DMSO; higher = less toxic; conditions: 24 h
[2] = test system: A549-ACE2 infected with SARS-CoV-2; assay: SARS-CoV-2 infection rate relative to DMSO; higher = more infection; conditions: 24 h
A549-ACE2 = assay: drug-induced phospholipidosis relative to tamoxifen; higher = more phospholipidosis
HepG2 [3] = assay: drug sensitivity score (DSS) for viability; higher = more toxic; extreme values may be limits of the assay; conditions: 72 h
U2OS [4] = assay: as above; conditions: 72 h
Vero E6 [5] = assay: as above; conditions: 72 h
Caco-2 [6] = assay: as above; conditions: 72 h
Calu-3 [7] = assay: as above; conditions: 72 h
[8] = test system: A549-ACE2 infected with SARS-CoV-2; assay: morphology score (similarity to uninfected cells); higher = more like uninfected cells; conditions: 24 h
HepG2 [9] = assay: cell viability relative to DMSO; higher = less toxic; conditions: 72 h
U2OS [10] = assay: as above; conditions: 72 h
Vero E6 [11] = assay: as above; conditions: 72 h
Caco-2 [12] = assay: as above; conditions: 72 h
Calu-3 [13] = assay: as above; conditions: 72 h
HepG2 [14] = assay: relative viability EC50 (midpoint between 100% and the lowest measured viability); higher = less toxic; conditions: 72 h
U2OS [15] = assay: as above; conditions: 72 h
Vero E6 [16] = assay: as above; conditions: 72 h
Caco-2 [17] = assay: as above; conditions: 72 h
Calu-3 [18] = assay: as above; conditions: 72 h

C/C(=N\NC(=S)N1CCC1)c1ccccn1
Conditions | SARS-CoV-2 infection rate, [2] [%] | cell count, [1] [%] | cell viability, Caco-2 [12] [%] | cell viability, Calu-3 [13] [%] | cell viability, HepG2 [9] [%] | cell viability, U2OS [10] [%] | cell viability, Vero E6 [11] [%] | morphology score, [8]
1 nM | – | – | 91.8 | 97.3 | 104 | 101 | 102 | –
10 nM | – | – | 14.9 | 102 | 74.3 | 101 | 96.6 | –
0.1 µM | 104 | 96 | – | – | – | – | – | -0.24
100 nM | – | – | 17.9 | 56.8 | 5.6 | 59 | 70.5 | –
0.3 µM | 104 | 95 | – | – | – | – | – | -0.09
1 µM | 104 | 89 | – | – | – | – | – | -0.19
1000 nM | – | – | 39.6 | 38.4 | 11.4 | 28.1 | 31.3 | –
3 µM | 68 | 88 | – | – | – | – | – | 0.17
10000 nM | – | – | 34 | 25.4 | 21 | 15.4 | 14.5 | –

drug-induced phospholipidosis [%], A549-ACE2
Conditions | 0.3 µM | 0.833333 µM | 3.33333 µM | 6.66667 µM | 10 µM | 30 µM
24 h | 11.7 | 5.99 | 0.42 | -4.61 | -12.7 | -11.9
48 h | – | – | – | – | -6.55 | –

Conditions | drug sensitivity score | relative viability EC50 [µM]
Caco-2 [6] | 38.4 | –
Caco-2 [17] | – | 0.0024
Calu-3 [7] | 18 | –
Calu-3 [18] | – | 0.0907
HepG2 [3] | 32.8 | –
HepG2 [14] | – | 0.0148
U2OS [4] | 18.8 | –
U2OS [15] | – | 0.122
Vero E6 [5] | 16.4 | –
Vero E6 [16] | – | 0.206

CCC[C@@H]1CC2=CC(=O)CC[C@]2(C)[C@H]2CC[C@@]3(C)[C@@H](CC[C@@]3(O)CCC(=O)O)[C@H]12
Conditions | SARS-CoV-2 infection rate, [2] [%] | cell count, [1] [%] | cell viability, Caco-2 [12] [%] | cell viability, Calu-3 [13] [%] | cell viability, HepG2 [9] [%] | cell viability, U2OS [10] [%] | cell viability, Vero E6 [11] [%] | morphology score, [8]
1 nM | – | – | 87.4 | 101 | 87.5 | 98.9 | 94.6 | –
10 nM | – | – | 98.4 | 92.5 | 105 | 98.3 | 91 | –
100 nM | – | – | 95.7 | 100 | 93.3 | 97.2 | 97.6 | –
0.3 µM | 98 | 95 | – | – | – | – | – | 0.12
1000 nM | – | – | 94.9 | 98.5 | 92 | 100 | 89.1 | –
3 µM | 105 | 103 | – | – | – | – | – | -0.07
10 µM | 97 | 100 | – | – | – | – | – | 0.07
10000 nM | – | – | 89.8 | 102 | 101 | 93.8 | 95.4 | –
30 µM | 96 | 99 | – | – | – | – | – | 0.1

drug-induced phospholipidosis [%], A549-ACE2
Conditions | 0.3 µM | 0.833333 µM | 3.33333 µM | 6.66667 µM | 10 µM | 30 µM
24 h | 2.3 | -0.41 | -0.2 | 0.45 | 2.66 | 5.67
48 h | 3.88 | 0.27 | -1.07 | 1.45 | 3.16 | 6.48
72 h | 3.28 | -0.65 | -0.652 | 0.565 | 3.59 | 9.53

Conditions | drug sensitivity score | relative viability EC50 [µM]
Caco-2 [6] | 0 | –
Caco-2 [17] | – | > 10
Calu-3 [7] | 0 | –
Calu-3 [18] | – | > 10
HepG2 [3] | 0 | –
HepG2 [14] | – | > 10
U2OS [4] | 0 | –
U2OS [15] | – | > 10
Vero E6 [5] | 0 | –
Vero E6 [16] | – | > 10

Cc1ccc2cc(-c3c(C)ccc(C(=O)c4c(-c5ccccc5)n(C)n(-c5ccccc5)c4=O)c3N)ccc2n1 [AMG-PERK-44]
Conditions | SARS-CoV-2 infection rate, [2] [%] | cell count, [1] [%] | cell viability, Caco-2 [12] [%] | cell viability, Calu-3 [13] [%] | cell viability, HepG2 [9] [%] | cell viability, U2OS [10] [%] | cell viability, Vero E6 [11] [%] | morphology score, [8]
1 nM | – | – | 92.6 | 105 | 96.5 | 98.4 | 85.8 | –
10 nM | – | – | 90.6 | 102 | 98.4 | 96.7 | 88.9 | –
100 nM | – | – | 75.3 | 100 | 93 | 98.1 | 92.9 | –
0.3 µM | 107 | 96 | – | – | – | – | – | -0.16
1000 nM | – | – | 68.5 | 95.7 | 91.3 | 102 | 98.7 | –
3 µM | 86 | 101 | – | – | – | – | – | 0.09
10 µM | 91 | 103 | – | – | – | – | – | 0.05
10000 nM | – | – | 97.1 | 111 | 86.7 | 101 | 116 | –
30 µM | 51 | 103 | – | – | – | – | – | 0.57

drug-induced phospholipidosis [%], A549-ACE2
Conditions | 0.3 µM | 0.833333 µM | 3.33333 µM | 6.66667 µM | 10 µM | 30 µM
24 h | 0.1 | -2.94 | -0.56 | 4.07 | 7.05 | 23.2
48 h | 0.46 | -0.23 | 5.6 | 10.1 | 14.1 | 24.3
72 h | 0.916 | 0.798 | 10 | 13.7 | 17.9 | 33.4

Conditions | drug sensitivity score | relative viability EC50 [µM]
Caco-2 [6] | 0 | –
Caco-2 [17] | – | > 10
Calu-3 [7] | 0 | –
Calu-3 [18] | – | > 10
HepG2 [3] | 0.2 | –
HepG2 [14] | – | > 10
U2OS [4] | 0 | –
U2OS [15] | – | > 10
Vero E6 [5] | 0 | –
Vero E6 [16] | – | > 10

COc1ccc(/C=C2\CCCN=C2c2cccnc2)c(OC)c1 [GTS21]
Conditions | SARS-CoV-2 infection rate, [2] [%] | cell count, [1] [%] | cell viability, Caco-2 [12] [%] | cell viability, Calu-3 [13] [%] | cell viability, HepG2 [9] [%] | cell viability, U2OS [10] [%] | cell viability, Vero E6 [11] [%] | morphology score, [8]
1 nM | – | – | 104 | 97.4 | 113 | 94.8 | 107 | –
10 nM | – | – | 97.2 | 94.1 | 101 | 105 | 100 | –
100 nM | – | – | 93.9 | 101 | 101 | 96.2 | 103 | –
0.3 µM | 108 | 96 | – | – | – | – | – | -0.18
1000 nM | – | – | 106 | 95.3 | 104 | 102 | 102 | –
3 µM | 99 | 99 | – | – | – | – | – | -0.04
10 µM | 86 | 110 | – | – | – | – | – | 0.24
10000 nM | – | – | 95.4 | 97 | 93.7 | 90.9 | 86.3 | –
30 µM | 28 | 118 | – | – | – | – | – | 0.78

drug-induced phospholipidosis [%], A549-ACE2
Conditions | 0.3 µM | 0.833333 µM | 3.33333 µM | 6.66667 µM | 10 µM | 30 µM
24 h | 2.83 | 0.08 | 1.02 | -1.62 | 5.46 | 7.31
48 h | 4.89 | -1.26 | 2.13 | 1.63 | 7.64 | 10
72 h | 3.83 | -0.539 | 2.57 | 1.51 | 7.5 | 15.1

Conditions | drug sensitivity score | relative viability EC50 [µM]
Caco-2 [6] | 0 | –
Caco-2 [17] | – | > 10
Calu-3 [7] | 0 | –
Calu-3 [18] | – | > 10
HepG2 [3] | 0 | –
HepG2 [14] | – | > 10
U2OS [4] | 0 | –
U2OS [15] | – | > 10
Vero E6 [5] | 0.1 | –
Vero E6 [16] | – | > 10
